Laboratory results as given in ChEMBL document CHEMBL1671693, “Antimicrobial resistance of Listeria monocytogenes strains isolated from humans in France” (2010).
In brackets after ≈: the same amount, converted by molar mass.

Assays:
Listeria monocytogenes [1] = assay: Antibacterial activity against Listeria monocytogenes isolated from humans harboring cat gene; format: functional
Listeria monocytogenes [2] = assay: Antibacterial activity against Listeria monocytogenes isolated from humans harboring lde gene
Listeria monocytogenes [3] = assay: Antibacterial activity against Listeria monocytogenes isolated from humans with putative chromosomal mutation; format: functional
Listeria monocytogenes [4] = assay: Antibacterial activity against Listeria monocytogenes isolated from humans harboring tet(M) gene; format: functional
Listeria monocytogenes [5] = assay: Antibacterial activity against Listeria monocytogenes isolated from humans harboring int-tn gene; format: functional
Listeria monocytogenes [6] = assay: Antibacterial activity against Listeria monocytogenes isolated from humans harboring putative ribosomal mutation; format: functional
Listeria monocytogenes [7] = assay: Antibacterial activity against Listeria monocytogenes isolated from humans harboring mutant dfrD gene

O=C(N[C@H](CO)[C@H](O)c1ccc([N+](=O)[O-])cc1)C(Cl)Cl [CHLORAMPHENICOL]
MIC (Listeria monocytogenes [1]): 48 µg/mL (≈ 149 µM)

O=C(O)c1cn(C2CC2)c2cc(N3CCNCC3)c(F)cc2c1=O [CIPROFLOXACIN]
MIC (Listeria monocytogenes [2]): > 6 µg/mL

CC[C@H]1OC(=O)[C@H](C)[C@@H](O[C@H]2C[C@@](C)(OC)[C@@H](O)[C@H](C)O2)[C@H](C)[C@@H](O[C@@H]2O[C@H](C)C[C@H](N(C)C)[C@H]2O)[C@](C)(O)C[C@@H](C)C(=O)[C@H](C)[C@@H](O)[C@]1(C)O [ERYTHROMYCIN]
MIC (Listeria monocytogenes [3]): 256 µg/mL (≈ 349 µM)

CN(C)c1ccc(O)c2c1C[C@H]1C[C@H]3[C@H](N(C)C)C(O)=C(C(N)=O)C(=O)[C@@]3(O)C(O)=C1C2=O [MINOCYCLINE]
MIC (Listeria monocytogenes [4]): 8 µg/mL (≈ 17.5 µM) | MIC (Listeria monocytogenes [5]): 8 µg/mL (≈ 17.5 µM)

CN[C@@H]1[C@H](O[C@H]2[C@H](O[C@H]3[C@H](O)[C@@H](O)[C@H](N=C(N)N)[C@@H](O)[C@@H]3N=C(N)N)O[C@@H](C)[C@]2(O)C=O)O[C@@H](CO)[C@H](O)[C@H]1O [STREPTOMYCIN]
MIC (Listeria monocytogenes [6]): 256 µg/mL (≈ 440 µM)

CN(C)[C@@H]1C(O)=C(C(N)=O)C(=O)[C@@]2(O)C(O)=C3C(=O)c4c(O)cccc4[C@@](C)(O)[C@H]3C[C@@H]12 [TETRACYCLINE]
MIC (Listeria monocytogenes [4]): 16 µg/mL (≈ 36 µM) | MIC (Listeria monocytogenes [5]): 16 µg/mL (≈ 36 µM)

COc1cc(Cc2cnc(N)nc2N)cc(OC)c1OC [TRIMETHOPRIM]
MIC (Listeria monocytogenes [7]): 1020 µg/mL (≈ 3530 µM)
